Measured values taken from patent US20250098679A1, “HERBICIDAL PYRIDONE DERIVATIVES” (SYNGENTA CROP PROTECTION AG, priority 2021, published 2025).

Experiments:
Format in all cases: in vivo
[1] = test system: Echinochloa crus-galli (ECHCG); assay: Pre-emergence Test, Echinochloa crus-galli (ECHCG); settings: evaluated after 13 days
[2] = test system: Echinochloa crus-galli (ECHCG); assay: Post-emergence Test, Echinochloa crus-galli (ECHCG); design: key to percentage damage caused to the plant, ECHCG (five-point scale): 5=81-100%, 4=61-80%, 3=41-60%, 2=21-40%, 1=0-20% damage; settings: 250 g/Ha, evaluated after 13 days
How it was run: (§1)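 Sown pots in a glasshouse (24/16 °C day/night, 14 h light, 65% humidity) were sprayed with compound in acetone/water (50:50) with 0.5% Tween 20, at 1000 g/ha unless otherwise stated. Damage was assessed 13 days after spraying and scored 1–5 (5=81-100%, 1=0-20%).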

[3] = test system: Amaranthus palmeri (AMAPA); assay: Pre-emergence Test, Amaranthus palmeri (AMAPA); settings: evaluated after 13 days
Zea mays (ZEAMX) [4] = assay: Post-emergence Test, Zea mays (ZEAMX); design: key to percentage damage caused to the plant, ZEAMX (five-point scale): 5=81-100%, 4=61-80%, 3=41-60%, 2=21-40%, 1=0-20% damage; settings: evaluated after 13 days
How it was run: as §1

[5] = test system: Amaranthus palmeri (AMAPA); assay: Post-emergence Test, Amaranthus palmeri (AMAPA); design: key: 5=81-100%, 4=61-80%, 3=41-60%, 2=21-40%, 1=0-20% damage; settings: evaluated after 13 days
How it was run: as §1

[6] = test system: Amaranthus retoflexus (AMARE); assay: Post-emergence Test, Amaranthus retoflexus (AMARE); design: key to percentage damage caused to the plant, AMARE (five-point scale): 5=81-100%, 4=61-80%, 3=41-60%, 2=21-40%, 1=0-20% damage; settings: evaluated after 13 days
How it was run: as §1

[7] = test system: Amaranthus retoflexus (AMARE); assay: Pre-emergence Test, Amaranthus retoflexus (AMARE); settings: evaluated after 13 days
Zea mays (ZEAMX) [8] = assay: Pre-emergence Test, Zea mays (ZEAMX); settings: evaluated after 13 days
[9] = test system: Ipomoea hederacea (IPOHE); assay: Pre-emergence Test, Ipomoea hederacea (IPOHE); settings: evaluated after 13 days
Setaria faberi (SETFA) [10] = assay: Post-emergence Test, Setaria faberi (SETFA); design: key to percentage damage caused to the plant, SETFA (five-point scale): 5=81-100%, 4=61-80%, 3=41-60%, 2=21-40%, 1=0-20% damage; settings: 1000 g/ha, evaluated after 13 days
How it was run: as §1

[11] = test system: Ipomoea hederacea (IPOHE); assay: Post-emergence Test, Ipomoea hederacea (IPOHE); design: key to percentage damage caused to the plant, IPOHE (five-point scale): 5=81-100%, 4=61-80%, 3=41-60%, 2=21-40%, 1=0-20% damage; settings: evaluated after 13 days
How it was run: as §1

Setaria faberi (SETFA) [12] = assay: Pre-emergence Test, Setaria faberi (SETFA); settings: 250 g/Ha (*), evaluated after 13 days

In the case of `CCn1c(Cn2ccc(OCC(F)(F)F)n2)cc(=O)c(C(=O)O)c1-c1ccc(Cl)c(Cl)c1` [Compound 185, 2-(3,4-dichlorophenyl)-1-ethyl-4-oxo-6-[[3-(2,2,2-trifluoroethoxy)pyrazol-1-yl]methyl]pyridine-3-carboxylic acid], the “Pre-emergence Test ECHCG, percentage damage caused to the plant (five-point scale)” value ([1]; 250 g/Ha (*)) is reported as 1 (1=0-20%), the “Pre-emergence Test ECHCG, percentage damage caused to the plant (five-point scale)” value ([1]; 1000 g/ha) is reported as 5 (5=81-100%) and the “percentage damage caused to the plant, ECHCG (five-point scale)” value [2] is reported as 3 (3=41-60%). The “Pre-emergence Test AMAPA, percentage damage caused to the plant (five-point scale)” value ([3]; 250 g/Ha (*)) was 1 (1=0-20%), the “Pre-emergence Test AMAPA, percentage damage caused to the plant (five-point scale)” value ([3]; 1000 g/ha) was 2 (2=21-40%) and the “percentage damage caused to the plant, ZEAMX (five-point scale)” value (Zea mays (ZEAMX) [4]; 250 g/Ha) was 1 (1=0-20%). The “percentage damage caused to the plant, ZEAMX (five-point scale)” value (Zea mays (ZEAMX) [4]; 1000 g/ha) was 4 (4=61-80%), the “percentage damage caused to the plant, AMAPA (five-point scale)” value ([5]; 250 g/Ha) was 1 (1=0-20%) and the “percentage damage caused to the plant, AMAPA (five-point scale)” value ([5]; 1000 g/ha) was 3 (3=41-60%). For the same compound, the “percentage damage caused to the plant, AMARE (five-point scale)” value ([6]; 250 g/Ha) was 1 (1=0-20%), the “percentage damage caused to the plant, AMARE (five-point scale)” value ([6]; 1000 g/ha) was 3 (3=41-60%) and the “Pre-emergence Test AMARE, percentage damage caused to the plant (five-point scale)” value ([7]; 250 g/Ha (*)) was 1 (1=0-20%). The “Pre-emergence Test AMARE, percentage damage caused to the plant (five-point scale)” value ([7]; 1000 g/ha) was 3 (3=41-60%), the “Pre-emergence Test ZEAMX, percentage damage caused to the plant (five-point scale)” value (Zea mays (ZEAMX) [8]; 250 g/Ha (*)) was 0 and the “Pre-emergence Test ZEAMX, percentage damage caused to the plant (five-point scale)” value (Zea mays (ZEAMX) [8]; 1000 g/ha) was 3 (3=41-60%). For the same compound, the “Pre-emergence Test IPOHE, percentage damage caused to the plant (five-point scale)” value ([9]; 250 g/Ha (*)) was 1 (1=0-20%), the “Pre-emergence Test IPOHE, percentage damage caused to the plant (five-point scale)” value ([9]; 1000 g/ha) was 3 (3=41-60%) and the “percentage damage caused to the plant, SETFA (five-point scale)” value (Setaria faberi (SETFA) [10]) was 4 (4=61-80%). The “percentage damage caused to the plant, IPOHE (five-point scale)” value ([11]; 250 g/Ha) was 3 (3=41-60%) and the “percentage damage caused to the plant, IPOHE (five-point scale)” value ([11]; 1000 g/ha) was 3 (3=41-60%).
For `CCn1c(Cn2ccc(C3CC3)n2)cc(=O)c(C(=O)O)c1-c1ccc(Cl)c(Cl)c1` [Compound 179, 6-[(3-cyclopropylpyrazol-1-yl)methyl]-2-(3,4-dichlorophenyl)-1-ethyl-4-oxo-pyridine-3-carboxylic acid], the “Pre-emergence Test ECHCG, percentage damage caused to the plant (five-point scale)” value ([1]; 250 g/Ha (*)) was 1 (1=0-20%), the “Pre-emergence Test ECHCG, percentage damage caused to the plant (five-point scale)” value ([1]; 1000 g/ha) was 5 (5=81-100%) and the “percentage damage caused to the plant, ECHCG (five-point scale)” value [2] was 3 (3=41-60%). For the same compound, the “Pre-emergence Test AMAPA, percentage damage caused to the plant (five-point scale)” value ([3]; 250 g/Ha (*)) was 0, the “Pre-emergence Test AMAPA, percentage damage caused to the plant (five-point scale)” value ([3]; 1000 g/ha) was 2 (2=21-40%) and the “percentage damage caused to the plant, ZEAMX (five-point scale)” value (Zea mays (ZEAMX) [4]; 250 g/Ha) was 3 (3=41-60%). For the same compound, the “percentage damage caused to the plant, ZEAMX (five-point scale)” value (Zea mays (ZEAMX) [4]; 1000 g/ha) was 4 (4=61-80%), the “percentage damage caused to the plant, AMAPA (five-point scale)” value ([5]; 250 g/Ha) was 1 (1=0-20%) and the “percentage damage caused to the plant, AMAPA (five-point scale)” value ([5]; 1000 g/ha) was 3 (3=41-60%). For the same compound, the “percentage damage caused to the plant, AMARE (five-point scale)” value ([6]; 250 g/Ha) was 0, the “percentage damage caused to the plant, AMARE (five-point scale)” value ([6]; 1000 g/ha) was 3 (3=41-60%) and the “Pre-emergence Test AMARE, percentage damage caused to the plant (five-point scale)” value ([7]; 1000 g/ha) was 4 (4=61-80%). The “Pre-emergence Test ZEAMX, percentage damage caused to the plant (five-point scale)” value (Zea mays (ZEAMX) [8]; 250 g/Ha (*)) was 0, the “Pre-emergence Test ZEAMX, percentage damage caused to the plant (five-point scale)” value (Zea mays (ZEAMX) [8]; 1000 g/ha) was 5 (5=81-100%) and the “Pre-emergence Test IPOHE, percentage damage caused to the plant (five-point scale)” value ([9]; 250 g/Ha (*)) was 0. The “Pre-emergence Test IPOHE, percentage damage caused to the plant (five-point scale)” value ([9]; 1000 g/ha) was 4 (4=61-80%), the “percentage damage caused to the plant, SETFA (five-point scale)” value (Setaria faberi (SETFA) [10]) was 4 (4=61-80%) and the “percentage damage caused to the plant, IPOHE (five-point scale)” value ([11]; 250 g/Ha) was 4 (4=61-80%). The “percentage damage caused to the plant, IPOHE (five-point scale)” value ([11]; 1000 g/ha) was 4 (4=61-80%).
`CCn1c(Cn2ccc(OCC(F)F)n2)cc(=O)c(C(=O)O)c1-c1ccc(Cl)c(Cl)c1` [Compound 165, 2-(3,4-dichlorophenyl)-6-[[3-(2,2-difluoroethoxy)pyrazol-1-yl]methyl]-1-ethyl-4-oxo-pyridine-3-carboxylic acid] was tested, and the “Pre-emergence Test ECHCG, percentage damage caused to the plant (five-point scale)” value ([1]; 250 g/Ha (*)) was 4 (4=61-80%), the “Pre-emergence Test ECHCG, percentage damage caused to the plant (five-point scale)” value ([1]; 1000 g/ha) was 5 (5=81-100%) and the “percentage damage caused to the plant, ECHCG (five-point scale)” value [2] was 3 (3=41-60%). The “Pre-emergence Test AMAPA, percentage damage caused to the plant (five-point scale)” value ([3]; 250 g/Ha (*)) was 0, the “Pre-emergence Test AMAPA, percentage damage caused to the plant (five-point scale)” value ([3]; 1000 g/ha) was 2 (2=21-40%) and the “percentage damage caused to the plant, ZEAMX (five-point scale)” value (Zea mays (ZEAMX) [4]; 250 g/Ha) was 2 (2=21-40%). The “percentage damage caused to the plant, ZEAMX (five-point scale)” value (Zea mays (ZEAMX) [4]; 1000 g/ha) was 3 (3=41-60%), the “percentage damage caused to the plant, AMAPA (five-point scale)” value ([5]; 250 g/Ha) was 1 (1=0-20%) and the “percentage damage caused to the plant, AMAPA (five-point scale)” value ([5]; 1000 g/ha) was 2 (2=21-40%). The “percentage damage caused to the plant, AMARE (five-point scale)” value ([6]; 250 g/Ha) was 1 (1=0-20%), the “percentage damage caused to the plant, AMARE (five-point scale)” value ([6]; 1000 g/ha) was 3 (3=41-60%) and the “Pre-emergence Test AMARE, percentage damage caused to the plant (five-point scale)” value ([7]; 250 g/Ha (*)) was 0. The “Pre-emergence Test AMARE, percentage damage caused to the plant (five-point scale)” value ([7]; 1000 g/ha) was 1 (1=0-20%), the “Pre-emergence Test ZEAMX, percentage damage caused to the plant (five-point scale)” value (Zea mays (ZEAMX) [8]; 250 g/Ha (*)) was 1 (1=0-20%) and the “Pre-emergence Test ZEAMX, percentage damage caused to the plant (five-point scale)” value (Zea mays (ZEAMX) [8]; 1000 g/ha) was 4 (4=61-80%). For the same compound, the “Pre-emergence Test IPOHE, percentage damage caused to the plant (five-point scale)” value ([9]; 250 g/Ha (*)) was 3 (3=41-60%), the “Pre-emergence Test IPOHE, percentage damage caused to the plant (five-point scale)” value ([9]; 1000 g/ha) was 4 (4=61-80%) and the “percentage damage caused to the plant, SETFA (five-point scale)” value (Setaria faberi (SETFA) [10]) was 4 (4=61-80%). For the same compound, the “percentage damage caused to the plant, IPOHE (five-point scale)” value ([11]; 250 g/Ha) was 4 (4=61-80%) and the “percentage damage caused to the plant, IPOHE (five-point scale)” value ([11]; 1000 g/ha) was 4 (4=61-80%).
For `CCOC(=O)c1c(C)cnn1Cc1cc(=O)c(C(=O)O)c(-c2ccc(Cl)c(Cl)c2)n1CC` [Compound 122, 2-(3,4-dichlorophenyl)-6-[(5-ethoxycarbonyl-4-methyl-pyrazol-1-yl)methyl]-1-ethyl-4-oxo-pyridine-3-carboxylic acid], the “Pre-emergence Test SETFA, percentage damage caused to the plant (five-point scale)” value (Setaria faberi (SETFA) [12]) was 1 (1=0-20%), the “Pre-emergence Test ECHCG, percentage damage caused to the plant (five-point scale)” value ([1]; 250 g/Ha (*)) was 0 and the “Pre-emergence Test AMAPA, percentage damage caused to the plant (five-point scale)” value ([3]; 250 g/Ha (*)) was 1 (1=0-20%). For the same compound, the “Pre-emergence Test AMARE, percentage damage caused to the plant (five-point scale)” value ([7]; 250 g/Ha (*)) was 0, the “Pre-emergence Test ZEAMX, percentage damage caused to the plant (five-point scale)” value (Zea mays (ZEAMX) [8]; 250 g/Ha (*)) was 0 and the “Pre-emergence Test IPOHE, percentage damage caused to the plant (five-point scale)” value ([9]; 250 g/Ha (*)) was 0.
